Measured values as given in patent publication US12673041B2, “4-aminobut-2-enamide derivatives and salt thereof” (TAIHO PHARMACEUTICAL CO., LTD., priority 2019, dated 2026).

Experiments:
[1] = target: T1, GMPPNP-bound KRAS G12C protein and cRAF RAS-binding domain (cRAF-RBD) (Homo sapiens, UniProt P01116, G12C); assay: Inhibitory activity on interaction between KRAS G12C and cRAF (Alpha technology); type: biochemical; conditions: GMPPNP-bound KRAS G12C incubated with compound at 25° C. for 1 hour, then cRAF-RBD, Alpha signal; read-out: IC50
T1 construct: made in house; host or cells: E. coli
Protocol: Interaction between recombinant K-Ras4B G12C mutant protein (amino acids 1-169, SEQ ID NO:2) and cRAF RAS-binding domain (cRAF-RBD, amino acids 50-132, Jena Biosciences GmbH) was measured using Alpha technology (PerkinElmer Inc.).
Recombinant KRAS G12C protein with an N-terminal His-tag was expressed in E. coli and purified by affinity chromatography. To prepare GTP-bound form and GDP-bound form of KRAS G12C protein, 50 μM KRAS G12C protein was incubated with 1 mM GMPPNP (Guanosine-5′-[(β,γ)-imido]triphosphate, Tetralithium salt) (Jena Bioscience GmbH) and 1 mM GDP, respectively, in a loading buffer (20 mM Tris-HCl (pH 7.5), 50 mM NaCl, 1 mM DTT and 2.5 mM EDTA) for 1 hour on ice. After the incubation, MgCl2 was added to a final concentration of 10 mM, followed by incubation at room temperature for 30 minutes. The mixture was allowed to pass through a NAP-5 column to remove free nucleotides and purified, and the resultant nucleotide-bound KRAS G12C protein was used for compound evaluation.
For the measurement of the inhibitory activity of compounds on interaction between KRAS G12C and cRAF-RBD, GMPPNP-bound KRAS G12C protein was incubated with various concentrations of compound in a reaction buffer (20 mM Tris-HCl (pH 7.5), 100 mM NaCl, 1 mM MgCl2, 1 mM TCEP, 0.1% Tween 20) at 25° C. for 1 hour. After the incubation, recombinant cRAF-RBD and Alpha detection reagents were added and incubated at room temperature for 1.5 hours for binding. Interaction 5 of KRAS G12C and cRAF-RBD was monitored by measuring Alpha signal. Inhibition % was calculated using the signal from the reaction without test compound (DMSO control) as 0% inhibition and the signal from the reaction using GDP-bound KRAS G12C in place of GMPPNP-bound KRAS G12C as 100% inhibition. IC50 values were calculated from dose titration curve using curve fitting by XLfit software (IDBS).

[2] = target: Gppcp-bound recombinant K-Ras4B G12C mutant protein (amino acids 1-169, C51S/C80L/C118S) (Homo sapiens, UniProt P01116, C118S/C51S/C80L/G12C); assay: KRASG12C binding assay (LC-MS compound binding rate); conditions: test compound final concentration 0.5 μM, 25° C., 1 hour
Protocol: As test compounds for the KRASG12C binding assay, the compounds obtained in the “Preparation of Compounds” section were used. Sample solutions each containing a test compound were prepared in the form of a 10 mM DMSO solution.
Gppcp-bound recombinant K-Ras4B G12C mutant protein (amino acids 1-169, C51S/C80L/C118S, SEQ ID NO:1) was diluted with a buffer (1×TBS, 0.1 mM TCEP, 0.25 mM MgCl2, 50 μM Gppcp) to prepare a 50 nM protein solution. K-Ras4B is the major splicing variant of K-Ras. Amino acid sequence of residues 1 to 150 including the compounds' binding region of K-Ras4B is exactly same as that of K-Ras4A, the other splicing variant (Oncotarget. 2016 Jul. 19; 7(29): 46717-46733). A sample solution containing 10 mM test compound was diluted ten-fold with DMSO to make a 1 mM sample solution, and then diluted twenty-fold with DMSO to make a 50 μM sample solution. 1 μL of a 50 μM sample solution was added to 100 μL of a 50 nM protein solution to adjust the final concentration of a test compound to be 0.5 μM in the mixture. The mixtures were stored in an incubator at 25° C. for 1 hour, and 10 μL of a 1×TBS solution containing 2% formic acid was added to stop the reaction, followed by LC-MS measurement. LC-MS measurement was performed using Xevo G2-S Q-Tof manufactured by Waters, and reverse-phase chromatography was performed with a desalting column. A mass spectrum of positive ions was obtained by electrospray. For a mass spectrum, a spectrum of polyvalent ions was collectively converted to a molecular weight by using OpenLynx software by the MaxEnt technique, and a compound binding rate was calculated from the ratio of the signal intensity of a peak that corresponds to the molecular weight of the protein to the signal intensity of a peak that corresponds to the molecular weight of the protein conjugated with the compound.
The binding assay of the test compounds was conducted at a final concentration of 0.5 μM. A binding rate of 80% or more is rated “A”, a binding rate of 60% or more and less than 80% is rated “B”, a binding rate of 40% or more and less than 60% is rated “C”, a binding rate of 20% or more and less than 40% is rated “D”, and a binding rate of less than 20% is rated “E”. N.D.=not determined. Binding rate % is the ratio of KRAS signal intensity at the molecular weight of one molecule adduct to the sum of all the KRAS signal intensity (unbound form and adducts) in mass spectrum.
Thus, binding rate 100% means that only the one molecule adduct was observed without any unbound KRAS.

SMILES | IC50 [1] [nM] | binding rate [2]
CO[C@H]1CC[C@H](NC/C=C/C(=O)Nc2ccc(C(=O)c3ccc4c(-c5c(C)cc6c(ncn6C)c5-c5cccnc5)cccn34)cc2C#N)CC1 [Example 82, (E)-N-(2-cyano-4-(8-(1,6-dimethyl-4-(pyridin-3-yl)-1H-benzo[d]imidazol-5-yl)indolizine-3-carbonyl)phenyl)-4-(((1r,4r)-4-methoxycyclohexyl)amino)but-2-enamide] | 150 | A (A binding rate of 80% or more is rated “A”)
CO[C@H]1CC[C@H](NC/C=C/C(=O)Nc2ccc(C(=O)c3ccc4c(-c5ccc6nn(C)c(Cl)c6c5Cl)cccn34)cc2C#N)CC1 [Example 79, (E)-N-(2-cyano-4-(8-(3,4-dichloro-2-methyl-2H-indazol-5-yl)indolizine-3-carbonyl)phenyl)-4-(((1r,4r)-4-methoxycyclohexyl)amino)but-2-enamide] | 440 | A (A binding rate of 80% or more is rated “A”)
Cn1cc2c(Cl)c(-c3cccn4c(C(=O)c5ccc(NC(=O)/C=C/CNC(C)(C)C)c(C#N)c5)ccc34)ccc2n1 [Example 52, (2E)-4-(tert-Butylamino)-N-{4-[8-(4-chloro-2-methyl-2H-indazol-5-yl)indolizine-3-carbonyl]-2-cyanophenyl}but-2-enamide] | 260 | B (a binding rate of 60% or more and less than 80% is rated “B”)
CO[C@H]1CC[C@H](NC/C=C/C(=O)Nc2ccc(C(=O)c3ccc4c(-c5cc6ncn(C)c6cc5C(F)(F)F)cccn34)cc2)CC1 [Example 39, (E)-4-(((1r,4r)-4-methoxycyclohexyl)amino)-N-(4-(8-(1-methyl-6-(trifluoromethyl)-1H-benzo[d]imidazol-5-yl)indolizine-3-carbonyl)phenyl)but-2-enamide] | 300 | A (A binding rate of 80% or more is rated “A”)
COc1cccc(F)c1-c1cccn2c(C(=O)c3ccc(NC(=O)/C=C/CN[C@H]4CC[C@H](OC)CC4)c(C#N)c3)ccc12 [Example 43, (E)-N-(2-cyano-4-(8-(2-fluoro-6-methoxyphenyl)indolizine-3-carbonyl)phenyl)-4-(((1r,4r)-4-methoxycyclohexyl)amino)but-2-enamide] | 170 | A (A binding rate of 80% or more is rated “A”)
CO[C@H]1CC[C@H](NC/C=C/C(=O)Nc2ccc(C(=O)c3ccc4c(-c5ccccc5Cl)cccn34)cc2C#N)CC1 [Example 45, (E)-N-(4-(8-(2-chlorophenyl)indolizine-3-carbonyl)-2-cyanophenyl)-4-(((1r,4r)-4-methoxycyclohexyl)amino)but-2-enamide] | 320 | B (a binding rate of 60% or more and less than 80% is rated “B”)
Cn1cnc2cc(-c3cccn4c(C(=O)c5ccc(NC(=O)/C=C/CNC(C)(C)C)c(Cl)c5)ccc34)c(C(F)(F)F)cc21 [Example 77, (E)-4-(tert-butylamino)-N-(2-chloro-4-(8-(1-methyl-6-(trifluoromethyl)-1H-benzo[d]imidazol-5-yl)indolizine-3-carbonyl)phenyl)but-2-enamide] | 330 | C (a binding rate of 40% or more and less than 60% is rated “C”)

Now from value to compound, other results behind:

IC50 [1] [nM] | SMILES | binding rate [2]
440 | CO[C@H]1CC[C@H](NC/C=C/C(=O)Nc2ccc(C(=O)c3c[nH]c4c(-c5cc6ncn(C)c6cc5C(F)(F)F)cccc34)c(F)c2)CC1 [Example 83, (E)-N-(3-fluoro-4-(7-(1-methyl-6-(trifluoromethyl)-1H-benzo[d]imidazol-5-yl)-1H-indole-3-carbonyl)phenyl)-4-(((1r, 4r)-4-methoxycyclohexyl)amino)but-2-enamide] | A (A binding rate of 80% or more is rated “A”)
150 | COCc1nc2cc(-c3cccc(NC(=O)c4ccc(NC(=O)/C=C/CNC5(C)CCC6(CC5)OCCO6)c(C#N)c4)c3)c(C(F)(F)F)cc2n1C [Example 24, (E)-3-cyano-N-(3-(2-(methoxymethyl)-1-methyl-6-(trifluoromethyl)-1H-benzo[d]imidazol-5-yl)phenyl)-4-(4-((8-methyl-1,4-dioxaspiro[4.5]decan-8-yl)amino)but-2-enamido)benzamide] | A (A binding rate of 80% or more is rated “A”)
880 | CCc1nc2cc(-c3cccc(NC(=O)c4ccc(NC(=O)/C=C/CN(C)C(C)(C)C)c(C#N)c4)c3)c(C(F)(F)F)cc2n1C [Example 2, (E)-4-(4-(tert-butyl(methyl)amino)but-2-enamido)-3-cyano-N-(3-(2-ethyl-1-methyl-6-(trifluoromethyl)-1H-benzo[d]imidazol-5-yl)phenyl)benzamide] | D (a binding rate of 20% or more and less than 40% is rated “D”)
180 | Cc1cc2c(cnn2C)cc1-c1cccn2c(C(=O)c3ccc(NC(=O)/C=C/CNC(C)(C)C)c(C#N)c3)ccc12 [Example 54, (2E)-4-(tert-Butylamino)-N-{2-cyano-4-[8-(1,6-dimethyl-1H-indazol-5-yl)indolizine-3-carbonyl]phenyl}but-2-enamide] | A (A binding rate of 80% or more is rated “A”)
700 | CO[C@H]1CC[C@H](NC/C=C/C(=O)Nc2ccc(C(=O)Nc3cccc(-c4cc5ncsc5cc4C)c3)cc2C#N)CC1 [Example 16, 3-cyano-4-((E)-4-(((1r,4r)-4-methoxycyclohexyl)amino)but-2-enamido)-N-(3-(6-methylbenzo[d]thiazol-5-yl)phenyl)benzamide] | C (a binding rate of 40% or more and less than 60% is rated “C”)
270 | CCN(CC)[C@H]1CC[C@H](NC/C=C/C(=O)Nc2ccc(C(=O)Nc3cccc(-c4c(Cl)ccc5c4cnn5C)c3)cc2C#N)CC1 [Example 12, N-(3-(5-chloro-1-methyl-1H-indazol-4-yl)phenyl)-3-cyano-4-((E)-4-(((1r,4r)-4-(diethylamino)cyclohexyl)amino)but-2-enamido)benzamide] | B (a binding rate of 60% or more and less than 80% is rated “B”)
140 | CO[C@H]1CC[C@H](NC/C=C/C(=O)Nc2ccc(C(=O)c3cc(Cl)c4c(-c5cc6ncn(C)c6cc5C)cccn34)cc2C#N)CC1 [Example 65, (E)-N-(4-(1-chloro-8-(1,6-dimethyl-1H-benzo[d]imidazol-5-yl)indolizine-3-carbonyl)-2-cyanophenyl)-4-(((1r,4r)-4-methoxycyclohexyl)amino)but-2-enamide] | B (a binding rate of 60% or more and less than 80% is rated “B”)
15000 | C=CC(=O)Nc1ccc(C(=O)Nc2cccc(-c3cc4nc(COC)n(C)c4cc3C(F)(F)F)c2)cc1C#N [Comparative example 2, reference compound] | E (a binding rate of less than 20% is rated “E”)
